Here are results for eight molecules from PMC3713598, “Renal Protective Role of Xiexin Decoction with Multiple Active Ingredients Involves Inhibition of Inflammation through Downregulation of the Nuclear Factor-κB Pathway in Diabetic Rats” (Evidence-based Complementary and Alternative Medicine : eCAM, 2013).

Read-outs that look alike come from different tables or passages of the source.

Series [1] is described as follows: Pharmacokinetics of XXD ingredients in diabetic rat plasma (LC-MS/MS). It counts as in vivo. Particulars: for Tmax / AUC(0-t) / Cmax: male, Sprague-Dawley, po; for Tmax / shape of plasma concentration-time curve: after ig administration of XXD for 12 weeks; for Tmax: diabetic rat plasma, read-out: time of peak concentrations (converted); for AUC(0-t) / Cmax: rat. The protocol: Male Sprague-Dawley rats (90−100 g) were purchased from the Shanghai Slac Laboratory Animal Co. (Shanghai, China). The rats were housed in an air-conditioned room at 22–24°C under a 12-h dark/light cycle and were given food and water at libitum. All animal experiments were conducted in accordance with the institutional guidelines for the care and use of laboratory animals at Shanghai University of TCM. After 1-week adaptation, animals were divided into a normal control (NC) group fed a standard diet and a high-fat group received a high-fat diet. After 4 weeks, rats on the high-fat diet were treated with streptozotocin (40 mg/kg, intraperitoneal injection). […] In the clinical practice of TCM, XXD is usually prescribed at a daily dose of 46 g of herbal materials (amount to 12 g extract) for diabetic patient. When this human dose was converted into an animal dose (a person of 60 kg, and a conversion factor of 6.25 between human and rat), it was equivalent to the low dose (1.25 g/kg extract) used in this study. NC and DM were treated with vehicle (normal saline) in a matched volume. All the rats were administered the drugs via intragastric gavage (ig) once a day, for 12 weeks.
The rats treated with XXD for 12 weeks were fasted with free access to water for 12 h before the PK experiments. Blood samples were collected before dosing and at 0, 0.25, 0.5, 1, 2, 4, 6, 12, and 24 h following administration. A validated liquid chromatography-tandem mass spectrometry (LC-MS/MS) method was applied to simultaneously determine the concentration of 11 ingredients (coptisine, jatrorrhizine, berberine, palmatine, baicalin, baicalein, wogonoside, wogonin, rhein, emodin, and aloeemodin) in blood plasma. The plasma concentration-time data were analysed by noncompartmental methods with the WinNonLin software package (Pharsight Corporation, Mountain View, CA, USA) to determine PK parameters.

Another series relates to diabetic nephropathy. Particulars: cited from earlier work.
[2] abbreviates: XXD 1.25 g/kg intragastric gavage for 12 weeks, diabetic rats, plasma, mean ± SD n = 8, read-out: AUC0–24 h.
Setting [3] is: XXD 1.25 g/kg intragastric gavage for 12 weeks, diabetic rats, plasma, mean ± SD n = 8, read-out: C max.
Setting [4] is: XXD 2.5 g/kg intragastric gavage for 12 weeks, diabetic rats, plasma, mean ± SD n = 8, read-out: AUC0–24 h.
The mark [5] stands for this setting: XXD 2.5 g/kg intragastric gavage for 12 weeks, diabetic rats, plasma, mean ± SD n = 8, read-out: C max.

With `Cc1cc(O)c2c(c1)C(=O)c1cc(O)cc(O)c1C2=O` [Emodin, emodin], the Tmax in series [1] (in vivo) is 30 min. Also, the AUC(0-t) in series [1] (in vivo, XXD 1.25 g/kg intragastric gavage for 12 weeks, diabetic rats, plasma, mean ± SD n = 8, read-out: AUC0–24 h) was determined as 61 ± 8 ng·h/mL; in series [1] (in vivo, XXD 2.5 g/kg intragastric gavage for 12 weeks, diabetic rats, plasma, mean ± SD n = 8, read-out: AUC0–24 h), 119 ± 25 ng·h/mL. In addition, the Cmax in series [1] (in vivo, XXD 1.25 g/kg intragastric gavage for 12 weeks, diabetic rats, plasma, mean ± SD n = 8, read-out: C max) came out at 13 ± 7 ng/mL; in series [1] (in vivo, XXD 2.5 g/kg intragastric gavage for 12 weeks, diabetic rats, plasma, mean ± SD n = 8, read-out: C max), 22 ± 9 ng/mL. Moreover, the anti-DN effects result in the series on diabetic nephropathy is “exhibited anti-DN effects”.

With `COc1c(O)cc(O)c2c(=O)cc(-c3ccccc3)oc12` [Wogonin, wogonin], in series [1], the Tmax was 10 min. In addition, the AUC(0-t) in series [1] (setting [2]) was determined as 154 ± 71 ng·h/mL; in series [1] (setting [4]), 423 ± 307 ng·h/mL. Further, the Cmax in series [1] (setting [3]) came to 47 ± 38 ng/mL; in series [1] (setting [5]), 149 ± 86 ng/mL.

With `O=C(O)[C@H]1O[C@@H](Oc2cc3oc(-c4ccccc4)cc(=O)c3c(O)c2O)[C@H](O)[C@@H](O)[C@@H]1O` [Baicalin, baicalin], in series [1] (diabetic rats), the “shape of plasma concentration-time curve” value is “double peaks”. Moreover, the Tmax in series [1] was 10 min. Also, the AUC(0-t) in series [1] (setting [2]) was found to be 4700 ± 1730 ng·h/mL; in series [1] (setting [4]), 16100 ± 9600 ng·h/mL. The Cmax in series [1] (setting [3]) worked out at 1560 ± 570 ng/mL; in series [1] (setting [5]), 4310 ± 1710 ng/mL. Further, the anti-DN effects result with diabetic nephropathy is on record as “exhibited anti-DN effects”. Also, the “renal TGF-β1 protein expression” value in the series on diabetic nephropathy was “downregulate”.

As to `COc1cc2c(cc1O)CC[n+]1cc3c(OC)c(OC)ccc3cc1-2` [Jatrorrhizine, jatrorrhizine], the “shape of plasma concentration-time curve” value in series [1] (diabetic rats) is “double peaks”. The values for the AUC(0-t) in series [1] (setting [2]) and in series [1] (setting [4]) were 172 ± 57 ng·h/mL and 201 ± 152 ng·h/mL, respectively. For the same molecule, the Cmax in series [1] (setting [3]) worked out at 14 ± 9 ng/mL; in series [1] (setting [5]), 21 ± 13 ng/mL.

Regarding `COc1c(O[C@@H]2O[C@H](C(=O)O)[C@@H](O)[C@H](O)[C@H]2O)cc(O)c2c(=O)cc(-c3ccccc3)oc12` [Wogonoside, wogonoside], the “shape of plasma concentration-time curve” value in series [1] (diabetic rats) was “double peaks”. In series [1], the Tmax was 10 min. Moreover, the figures for the AUC(0-t) in series [1] (setting [2]) and in series [1] (setting [4]) were 3460 ± 894 ng·h/mL and 8880 ± 2990 ng·h/mL, respectively. Further, the results for the Cmax in series [1] (setting [3]) and in series [1] (setting [5]) were 1140 ± 321 ng/mL and 2240 ± 475 ng/mL, respectively.

Take `COc1cc2c(cc1OC)-c1cc3ccc(OC)c(OC)c3c[n+]1CC2` [Palmatine, palmatine]: the AUC(0-t) in series [1] (in vivo, 1.25 g/kg) stood at 113 ± 69 ng·h/mL; in series [1] (in vivo, 2.5 g/kg), 312 ± 197 ng·h/mL. The Cmax turned out to be 17 ± 13 ng/mL in series [1] (in vivo, 1.25 g/kg) and 29 ± 18 ng/mL in series [1] (in vivo, 2.5 g/kg).

As to `O=C(O)c1cc(O)c2c(c1)C(=O)c1cccc(O)c1C2=O` [Rhein, rhein], the Tmax in series [1] is 10 min. Further, the AUC(0-t) in series [1] (setting [2]) came out at 1100 ± 216 ng·h/mL; in series [1] (setting [4]) it was 2790 ± 937 ng·h/mL. Also, the Cmax in series [1] (setting [3]) is 961 ± 430 ng/mL; in series [1] (setting [5]) it was 1750 ± 514 ng/mL. Further, the anti-DN effects result in the series with diabetic nephropathy is reported as “exhibited anti-DN effects”. Further, the “renal TGF-β1 protein expression” value in the series on diabetic nephropathy is listed as “downregulate”.

Turning to `O=C1c2cccc(O)c2C(=O)c2c(O)cc(CO)cc21` [aloeemodin], in series [1] (at about 0.5–2 h after ig XXD, below the LLOQ at other times), the “plasma concentration relative to LLOQ” value is recorded as “slightly higher than the lower limit of quantification”.
